Reference: patent publication US20160038439A1, “Use of 7-a-[9-(4,4,5,5,5-pentafluoropentylsulfinyl)nonyl]-estra-1,3,5(10)- triene-3,17B-diol and derivatives thereof” (XI'ANLIBANG PHARMACEUTICAL TECHNOLOGY CO., LTD., priority 2013, published 2016)
Marks after values point to notes of the source that are not given here.

Experiments:
TNF-α [1] = test: TNF-α level in hindfoot ankle joint tissue of rats with arthritis; format: in vivo, SD rats
Protocol: (§1) After inflamed model was successfully established in SD rats, the SD rats were randomly divided into model control group (12 rats), low, medium dose group (8 rats for each), and high dose group (12 rats) of test drug depending on body weight. Rats in the model control group were administered a blank fat emulsion injection (0.5 mL) by tail vein injection every other day for 7 days; rats in the low and medium dose group of test drug were administered a fat emulsion injection of a compound of Formula A (specifically including Compounds I-VI described hereafter) by tail vein injection every other day for 7 days; rats in the high dose group of test drug were administered a fat emulsion injection of a compound of Formula A by tail vein injection every other day for 14 days. 12 same models in the normal control group were also administered a blank fat emulsion injection. Indexes such as hindfoot joint score, hindfoot joint thickness measurement, TNF-α level in serum and hindfoot joint tissues, hindfoot joint pathological section and the like were used to evaluate efficacy of the drug.
(§2) Compound I used in the present invention was purchased from Xi′ an Libang Pharmaceutical Co., Ltd.; Compounds II-IV were synthesized by the following method. SD rats used in the present invention were purchased from Super-B&K Laboratory Animal Corp. Ltd.; chicken type II collagen was purchased from Sigma, Lot No. 87H5227; rat tumor necrosis factor-α [TNF-α] enzyme-linked immunoassay kit (ELISA) was purchased from Shanghai Biovol Biotech Co., Ltd., Lot No. BV-E12102201.
(§3) Chicken type II collagen was dissolved in 0.1 mol/L acetic acid at 4° C. while stirring so as to be thoroughly dissolved at a concentration of 2 mg/mL The resulting solution was put into a refrigerator at 4° C. overnight. Liquid paraffin and lanolin were mixed at a ratio of 2:1 (volume ratio), and the mixture was autoclaved to prepare an incomplete Freund's adjuvant (IFA). Bacillus Calmette Guerin (BCG) vaccine (60 mg) was inactivated at 80° C. for 1 hour and transferred to a mortar, into which was dropwise added IFA. After being uniformly grinded, the resulting mixture was pushed and sucked repeatedly by double-syringe to prepare a complete Freund's adjuvant (CFA), with the final concentration of BCG vaccine being 2 mg/mL. An equal amount of chicken type II collagen acid solution was mixed with CFA into a stable emulsion (containing 1 mg chicken type II collagen per milliliter).
(§4) 12 female SD rats were randomly selected from 192 female SD rats as normal control group. The remaining 180 rats was disinfected with iodine tincture. After being deiodinated with 75% ethanol, each of the rat was administered 150 μL collagen emulsion by intradermal injection at the base of the tail, and was administered 100 μL collagen emulsion by intradermal injection at the vola pedis of right hindfoot. Thus, totally 250 μL for each rat was administered. 7 days later, an equal amount of collagen emulsion was intraperitoneal injected as a secondary immune.
(§5) Animal grouping and administration: inflamed rats were divided into model control group, low, medium and high dose groups of test drug based on body weight.
(§6) Rats in each group were scored for the hindfoot joint and measured for the thickness of ankle joint before being inflamed. Normal rats were taken blood from orbital venous plexus. The serum of the blood was separated out and cryopreserved at −20° C. to detect cytokines. Rats were scored for joint after being inflamed for 3 days, and were measured for the thickness of ankle joint before administration (on the 19th day since being inflamed), on the 3rd day and 8th day after administration (on the […] since being inflamed). Rats in each group were taken blood from orbital venous plexus when inflammation was severe (on the 23rd day after being inflamed). The serum of the blood was separated out and cryopreserved at −20° C. […]

[2] = tested on: chicken type II collagen-induced arthritis model in SD rats; test: Pathological examination score of hindfoot ankle joint of rats with arthritis; format: in vivo; settings: high dose group (1.40-2.16 mg/kg per compound), every other day for 14 days, n=4
Protocol: as §1, §3
as §4, with “Thus, totally 250 μL for each rat was administered. 7 days later, an equal amount of collagen emulsion was intraperitoneal injected as a secondary immune.” left out
Rats in each group were scored for the hindfoot joint and measured for the thickness of ankle joint before being inflamed. […] Rats were scored for joint after being inflamed for 3 days, and were measured for the thickness of ankle joint before administration (on the 19th day since being inflamed), on the 3rd day and 8th day after administration (on the 20th day since being inflamed). […]

[3] = tested on: chicken type II collagen-induced arthritis model in SD rats; test: Hindfoot joint score in chicken type II collagen-induced arthritis model in SD rats; format: in vivo; design: scale not given here; settings: tail vein, every other day
Protocol: as §1, §3, §4, §5
(§7) Rats in each group were scored for the hindfoot joint and measured for the thickness of ankle joint before being inflamed. Normal rats were taken blood from orbital venous plexus. The serum of the blood was separated out and cryopreserved at −20° C. to detect cytokines. Rats were scored for joint after being inflamed for 3 days, and were measured for the thickness of ankle joint before administration (on the 19th day since being inflamed), on the 3rd day and 8th day after administration (on the […] since being inflamed). Rats in each group were taken blood from orbital venous plexus when inflammation was severe (on the 23rd day after being inflamed). The serum of the blood was separated out and cryopreserved at −20° C. 8 rats for each group were sacrificed on the 28th day after being inflamed and were taken blood from intraperitoneal vein. The serum of the blood was separated out and was subjected to serological detection (TNF-α). The rest of rats were sacrificed on the 35th day after being inflamed, and histology index detection was carried out

TNF-α [4] = test: TNF-α level in serum of rats with arthritis (ELISA); format: in vivo, SD rats
Protocol: as §1, §2, §3, §4, §5, §6

[5] = tested on: chicken type II collagen-induced arthritis model in SD rats; test: Thickness of right hindfoot ankle joint by microcalliper, collagen-induced arthritis rats; format: in vivo
Protocol: as §1, §3, §4, §5, §7

[6] = left ankle joint, high dose group
[7] = left ankle joint, low dose group
[8] = left ankle joint, medium dose group
[9] = right ankle joint, high dose group
[10] = right ankle joint, low dose group
[11] = right ankle joint, medium dose group
[12] = high dose group, before administration (baseline)
[13] = high dose group, the 3rd day after administration
[14] = high dose group, the 8th day after administration
[15] = low dose group, before administration (baseline)
[16] = low dose group, the 3rd day after administration
[17] = low dose group, the 8th day after administration
[18] = medium dose group, before administration (baseline)
[19] = medium dose group, the 3rd day after administration
[20] = medium dose group, the 8th day after administration

| Compound | TNF-α level in ankle (mean ± SD) (TNF-α [1]; [6]) [pg/mL] | TNF-α level in ankle (mean ± SD) (TNF-α [1]; [7]) [pg/mL] | TNF-α level in ankle (mean ± SD) (TNF-α [1]; [8]) [pg/mL] | TNF-α level in ankle (mean ± SD) (TNF-α [1]; [9]) [pg/mL] | TNF-α level in ankle (mean ± SD) (TNF-α [1]; [10]) [pg/mL] | TNF-α level in ankle (mean ± SD) (TNF-α [1]; [11]) [pg/mL] | Joint lesion score (mean ± SD) [2] | Mean value of hindfoot joint score [3, 12] | Mean value of hindfoot joint score [3, 13] | Mean value of hindfoot joint score [3, 14] | Mean value of hindfoot joint score [3, 15] | Mean value of hindfoot joint score [3, 16] | Mean value of hindfoot joint score [3, 17] | Mean value of hindfoot joint score [3, 18] | TNF-α level in serum (mean ± SD) (TNF-α [4]; [13]) [pg/mL] | TNF-α level in serum (mean ± SD) (TNF-α [4]; [14]) [pg/mL] | TNF-α level in serum (mean ± SD) (TNF-α [4]; [16]) [pg/mL] | TNF-α level in serum (mean ± SD) (TNF-α [4]; [17]) [pg/mL] | TNF-α level in serum (mean ± SD) (TNF-α [4]; [19]) [pg/mL] | TNF-α level in serum (mean ± SD) (TNF-α [4]; [20]) [pg/mL] | also measured |
| --- | --- | --- | --- | --- | --- | --- | --- | --- | --- | --- | --- | --- | --- | --- | --- | --- | --- | --- | --- | --- | --- |
| 7-α-[9-(4,4,5,5,5-pentafluoropentylsulfinyl)nonyl]-estra-1,3,5(10)-triene-3-acetyl-17-(undec-2-enoyl) [Compound VI] | 12.05 ± 4.01 | 14.39 ± 3.52 | 13.98 ± 3.66 | 14.58 ± 2.79 | 15.31 ± 5.02 | 12.67 ± 5.23 | 1.88 ± 1.26 | 5.3 | 4.7**^# | 5.5 | 4.6 | 5.4**^## | 4.9 | 4.8 | 28.27 ± 37.62 | 26.56 ± 18.06 | 47.22 ± 96.55 | 197.35 ± 231.02 | 13.08 ± 7.93 | 78.21 ± 88.90 | Mean value of hindfoot joint score [3, 19]: 4.6**; Mean value of hindfoot joint score [3, 20]: 5.5 |
| 7-α-[9-(4,4,5,5,5-pentafluoropentylsulfinyl)nonyl]-estra-1,3,5(10)-triene-3-hydroxyl-17-undecanoyl [Compound II] | 14.08 ± 4.09 | 13.79 ± 4.68 | 15.91 ± 5.84 | 15.11 ± 4.32 | 13.79 ± 3.26 | 12.13 ± 3.35 | 2.50 ± 2.65 | 4.7 | 5.3**^# | 4.9 | 4.9 | 4.8** | 5.6^# | 4.9 | 26.72 ± 35.26 | 25.65 ± 20.66 | 48.28 ± 94.84 | 201.35 ± 250.23 | 11.00 ± 9.39 | 75.12 ± 93.40 | Mean value of hindfoot joint score [3, 19]: 4.9**; Mean value of hindfoot joint score [3, 20]: 4.9; Thickness of ankle joint (mean ± SD) [5, 12]: 6.31 ± 0.52 mm; Thickness of ankle joint (mean ± SD) [5, 13]: 6.29 ± 0.69 mm; Thickness of ankle joint (mean ± SD) [5, 14]: 5.83 ± 0.61 mm; Thickness of ankle joint (mean ± SD) [5, 15]: 6.39 ± 0.68 mm; Thickness of ankle joint (mean ± SD) [5, 16]: 6.05 ± 0.55 mm; Thickness of ankle joint (mean ± SD) [5, 17]: 5.98 ± 0.19 mm; Thickness of ankle joint (mean ± SD) [5, 18]: 5.99 ± 0.57 mm; Thickness of ankle joint (mean ± SD) [5, 19]: 6.31 ± 0.54 mm; Thickness of ankle joint (mean ± SD) [5, 20]: 6.31 ± 0.51 mm |
| 7-α-[9-(4,4,5,5,5-pentafluoropentylsulfinyl)nonyl]-estra-1,3,5(10)-triene-3-hydroxyl-17-(undec-2-enoyl) [Compound V] | 12.76 ± 3.34 | 13.56 ± 5.28 | 14.25 ± 5.00 | 13.68 ± 4.44 | 12.71 ± 4.00 | 11.73 ± 4.20 | 3.75 ± 2.06 | 4.5 | 5.6^## | 4.8 | 4.6 | 5.1** | 5.9^## | 4.4 | 46.48 ± 101.05 | 12.35 ± 9.72 | 66.71 ± 121.06 | 123.73 ± 157.16 | 10.02 ± 14.59 | 23.44 ± 27.21 | Mean value of hindfoot joint score [3, 19]: 5.7^##; Mean value of hindfoot joint score [3, 20]: 4.4*; Thickness of ankle joint (mean ± SD) [5, 12]: 6.28 ± 0.44 mm; Thickness of ankle joint (mean ± SD) [5, 13]: 6.44 ± 0.60 mm; Thickness of ankle joint (mean ± SD) [5, 14]: 6.07 ± 0.41 mm; Thickness of ankle joint (mean ± SD) [5, 15]: 6.27 ± 0.36 mm; Thickness of ankle joint (mean ± SD) [5, 16]: 6.36 ± 0.64 mm; Thickness of ankle joint (mean ± SD) [5, 17]: 6.20 ± 0.52 mm; Thickness of ankle joint (mean ± SD) [5, 18]: 6.09 ± 0.45 mm; Thickness of ankle joint (mean ± SD) [5, 19]: 6.74 ± 0.44 mm; Thickness of ankle joint (mean ± SD) [5, 20]: 6.15 ± 0.37 mm |
| C[C@]12CC[C@@H]3c4ccc(O)cc4C[C@@H](CCCCCCCCC[S+]([O-])CCCC(F)(F)C(F)(F)F)[C@H]3[C@@H]1CC[C@@H]2O (stereo partly drawn) [Compound I, 7-α-[9-(4,4,5,5,5-pentafluoropentylsulfinyl)nonyl]-estra-1,3,5(10)-triene-3,17β-diol, reference compound] | 8.66 ± 4.33 | 10.16 ± 5.82 | 9.57 ± 5.10 | 8.98 ± 7.44 | 10.71 ± 4.61 | 9.63 ± 3.02 | – | – | – | – | – | – | – | – | 13.48 ± 25.05 | 18.45 ± 12.72 | 50.15 ± 60.06 | 52.78 ± 67.16 | 31.55 ± 54.58 | 22.41 ± 25.25 | – |
